# According to the supplement of paper PMC10307832:
# Experiments:
# Assay in all cases: relative viability (nuclei count vs DMSO), 5 days (fraction); higher = more cells survive
# [1] = compound: CC1=C(CC(=O)O)c2cc(F)ccc2/C1=C\c1ccc([S+](C)[O-])cc1 [Sulindac] + COc1cc2c(Oc3ccc(NC(=O)C4(C(=O)Nc5ccc(F)cc5)CC4)cc3F)ccnc2cc1OCCCN1CCOCC1 [Foretinib] (partner 0.25 µM)
# Method in brief: (§1)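 The day after seeding in 1536-well plates, lung cancer cell lines were treated by pin tool with a single drug, or with a fixed anchor-drug dose together with five library-drug doses (not always all listed) in √10 steps. After 5 days, a combined fix-and-stain solution (final 0.05% Triton X-100, 1% formaldehyde, 1 ug/ml Hoechst) was added. Nuclei counted on 4× images gave relative viability as treated counts over vehicle counts, reported as the median of duplicate plates.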
# [2] = compound: CC1=C(CC(=O)O)c2cc(F)ccc2/C1=C\c1ccc([S+](C)[O-])cc1 [Sulindac] + CS(=O)(=O)CCNCc1ccc(-c2ccc3ncnc(Nc4ccc(OCc5cccc(F)c5)c(Cl)c4)c3c2)o1 [Lapatinib] (partner 2 µM)
# Method in brief: as §1
# [3] = compound: CN[C@@H]1C[C@H]2O[C@@](C)([C@@H]1OC)n1c3ccccc3c3c4c(c5c6ccccc6n2c5c31)C(=O)NC4 [Staurosporine] + Cc1cc(Nc2cc(N3CCN(C)CC3)nc(Sc3ccc(NC(=O)C4CC4)cc3)n2)n[nH]1 [Tozasertib] (partner 0.1 µM)
# Method in brief: as §1
# [4] = compound: CN[C@@H]1C[C@H]2O[C@@](C)([C@@H]1OC)n1c3ccccc3c3c4c(c5c6ccccc6n2c5c31)C(=O)NC4 [Staurosporine] + Nc1ncn([C@H]2C[C@H](O)[C@@H](CO)O2)c(=O)n1 [Decitabine] (partner 2 µM)
# Method in brief: as §1
Cell Line,relative viability ([1]; first compound 0.08 µM),relative viability ([1]; first compound 0.253 µM),relative viability ([1]; first compound 0.8 µM),relative viability ([1]; first compound 2.53 µM),relative viability ([1]; first compound 8 µM),relative viability ([2]; first compound 0.08 µM),relative viability ([2]; first compound 0.253 µM),relative viability ([2]; first compound 0.8 µM),relative viability ([2]; first compound 2.53 µM),relative viability ([2]; first compound 8 µM),relative viability ([3]; first compound 0.005 µM),relative viability ([3]; first compound 0.01581 µM),relative viability ([3]; first compound 0.05 µM),relative viability ([3]; first compound 0.1581 µM),relative viability ([3]; first compound 0.5 µM),relative viability ([4]; first compound 0.005 µM),relative viability ([4]; first compound 0.01581 µM),relative viability ([4]; first compound 0.05 µM),relative viability ([4]; first compound 0.1581 µM),relative viability ([4]; first compound 0.5 µM)
LXF-289,0.98,1.05,0.98,1.02,1.03,0.956,0.972,0.87,0.919,0.941,0.0996,0.072,0.0495,0.0532,0.0507,0.445,0.266,0.31,0.18,0.206
NCI-H23,0.879,,0.782,0.607,1.03,1.26,1.17,0.996,0.98,1.3,0.324,,0.198,0.157,0.196,0.309,0.213,0.203,0.163,0.161
NCI-H322M,0.992,0.996,0.882,0.954,1,0.632,0.626,0.523,0.565,0.561,0.318,0.318,0.287,0.334,0.288,0.667,0.49,0.529,0.475,0.49
NCI-H358,0.85,0.763,0.572,0.621,0.826,0.457,0.439,0.474,0.44,0.564,0.0876,0.0765,0.0699,0.0598,0.0619,0.244,0.213,0.121,0.0796,0.0666
NCI-H460,1.3,1.12,0.667,1.02,1.08,1.97,1.38,,1.12,1.19,0.698,0.113,0.304,0.0517,0.0214,0.397,0.308,0.175,0.0228,0.0211
NCI-H520,0.876,0.822,,0.678,1.34,0.956,0.944,0.793,0.755,1.14,0.57,0.473,0.423,0.366,0.303,0.527,0.465,0.392,0.188,0.161
NCI-H596,0.796,1.05,0.928,0.97,0.892,1.02,0.983,1.01,0.973,1.21,1.02,0.735,0.572,0.36,0.288,1.01,0.885,0.712,0.366,0.504
NCI-H647,1.25,1.2,1.05,1.25,1.28,1.22,1.13,0.651,1.38,1.32,0.201,0.157,0.0667,0.0489,0.061,0.379,0.247,0.266,0.0707,0.062
NCI-H650,0.926,1,0.997,0.994,1.19,1.08,0.977,0.598,0.767,1.07,0.451,0.238,0.278,0.193,0.181,0.343,0.411,0.258,0.235,0.188
NCI-H661,1.12,1.05,0.999,1.1,1.03,0.512,0.413,0.474,0.564,0.557,0.392,0.445,0.401,0.335,0.238,0.555,0.484,0.436,0.267,0.186
NCI-H727,0.789,0.93,,0.898,0.826,0.968,0.799,0.767,0.699,1.19,0.562,0.429,0.303,0.318,0.297,0.859,0.587,0.432,0.393,0.316
NCI-H838,1.05,1.19,1.03,1.06,1.22,1.21,1.02,0.638,0.972,1.03,0.218,0.156,0.179,0.164,0.143,0.368,0.271,0.181,0.139,0.141
NCI-H1355,1.16,1.04,,1.07,0.987,1.16,1.05,0.881,0.956,1.13,0.577,0.286,0.252,0.188,0.151,0.389,0.293,0.281,0.234,0.152
NCI-H1395,0.845,1.02,0.949,0.906,1.1,1.2,1.08,1.01,0.8,1.15,0.705,0.614,0.37,0.331,0.265,0.76,0.596,0.454,0.314,0.27
NCI-H1437,1.33,1.23,1,1.28,1.42,0.884,1.01,0.593,0.856,1.1,0.402,,0.381,0.325,0.199,0.639,0.442,0.439,0.248,0.15
